Laboratory results reported in patent publication US20240173432A1, “Compositions and Methods for Treatment of Myotonic Dystrophy Type 1 with CRISPR/SluCas9” (Vertex Pharmaceuticals Incorporated, priority 2021, published 2024).

Tests used:
[1] = tested on: 3′ UTR of the human DMPK gene; experiment: Single-cut screening: indel editing efficiency by Sanger sequencing and ICE analysis in primary DM1 patient myoblasts; type: cell-based; conditions: vehicle-treated samples; for Indel efficiency: single SluCas9 sgRNA RNP in primary DM1 patient myoblasts, Sanger sequencing and ICE analysis; for indel efficiency (Sanger sequencing and ICE analysis): single-cut, SluCas9 RNP, 72 hrs post nucleofection, wild-type allele
Outline: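 Indels were estimated by ICE from Sanger chromatograms of PCR amplicons covering the DMPK 3′ UTR wild-type allele, using only vehicle-treated samples; sgRNAs with R2<0.9 are flagged. Samples came from primary DM1 patient myoblasts (2 × 10^5) harvested 72 h after nucleofection with 30 pmol SluCas9 and 90 pmol single sgRNA RNP.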

[2] = tested on: CUG foci in primary DM1 patient myoblasts; experiment: Single-cut screening: FISH staining of CUG RNA foci; type: cell-based, human; conditions: single sgRNA, primary DM1 patient myoblasts; for % of CUG foci free nuclei (DNA-PKi): DNA-PKi treated
Outline: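 CD56-purified primary DM1 patient myoblasts nucleofected with SluCas9:sgRNA RNP (30:90 pmol, single-cut), then DMSO or 3 μM DNA-PK inhibitor for 48 h. At 72 h post-nucleofection, cells fixed and stained for CUG foci with Cy3-PNA(CAG)5 probe (1 ng/μL, 80 °C), co-stained for MBNL1 and Hoechst, imaged by high-content confocal microscopy.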

[3] = tested on: CAG foci in primary DM1 patient myoblasts; experiment: Single-cut screening: CAG foci staining; type: cell-based, human; conditions: single sgRNA; for % of CAG foci positive nuclei (DNA-PKi): DNA-PKi treated
Outline: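 Primary DM1 patient myoblasts were PFA-fixed and hybridized with […] (1 ng/μL, 15 min at 80° C) in 30% formamide/2×SSC, followed by anti-MBNL1 immunostaining and Hoechst counterstain. CAG RNA foci were quantified by high-content confocal imaging after single-cut SuCas9 sgRNA editing.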

Row | Substance | Indel efficiency [1] | % of CUG foci free nuclei (DNA-PKi) [2] | % of CUG foci free nuclei (Vehicle) [2] | % of CAG foci positive nuclei (DNA-PKi) [3] | % of CAG foci positive nuclei (Vehicle) [3] | indel efficiency (Sanger sequencing and ICE analysis) [1]
1 | CCTGCAGTTTGCCCATCCACGT (guide RNA; chemistry not fully specified) [SluD11] | 16% | 52.55% | 14.54% | 2.22% | 1.7% | 
2 | CCTGTAGCCTGTCAGCGAGTCG (listed as DNA, chemistry not fully specified) [SluD68] | 72% | 25.13% | 12.88% | 1.94% | 2.3% | high editing IN4DEL efficiency
3 | CGAGAGCAGCGCAAGTGAGGAG (guide RNA; chemistry not fully specified) [SluD49] | 41% | 37.77% | 12.39% | 2.3% | 2.83% | 
4 | CGAGGGTCGGGGGTGGGGGTCC (guide RNA; chemistry not fully specified) [SluD88] | 7% | 31.95% | 11.11% | 2.42% | 1.4% | 
5 | CGCCCAGCTCCAGTCCTGTGAT (guide RNA; chemistry not fully specified) [SluU27] | 1% | 38.24% | 7.71% | 1.94% | 1.64% | 
6 | CGCCCCCTAGCggccggggagg (guide RNA; as printed in the source, key not given here) [SluU41] | 13% | 47.52% | 13.34% | 1.08% | 0.74% | 
7 | CGCCGAAGCGGGCGGAGCCGGC (guide RNA; chemistry not fully specified) [SluD58] | 33% | 31.45% | 18.03% | 1.96% | 1.37% | 
8 | CGCGCCAGACGCTCCCCAGAGC (listed as DNA, chemistry not fully specified) [SluD34] | 71% | 31.92% | 15% | 2.01% | 3.9% | high editing IN4DEL efficiency
9 | CGGAGCGGTTGTGAACTGGCAG (guide RNA; chemistry not fully specified) [SluU20] | 30% | 49.95% | 18.45% | 1.43% | 1.15% | 
10 | CGGATCACAGGACTGGAGCTGG (guide RNA; chemistry not fully specified) [SluU29] | 67% | 48.49% | 27.28% | 1.82% | 1.18% | 
11 | CGGCTCCGCCCGCTTCGGCGGT (guide RNA; chemistry not fully specified) [SluD60] | 0% | 16.87% | 6.71% | 1.16% | 1.02% | 
12 | CGTGGATGGGCAAACTGCAGGC (guide RNA; chemistry not fully specified) [SluD12] | 44% | 23.77% | 17.76% | 1.21% | 4.65% | 
13 | CTAGCggccggggagggagggg (guide RNA; as printed in the source, key not given here) [SluU47] | 0% | 12.71% | 5.91% | 2.4% | 1% | 
14 | CTCAGTGCATCCAAAACGTGGA (guide RNA; chemistry not fully specified) [SluD77] | 17% | 28.94% | 14.94% | 3.13% | 1.8% | 
15 | CTCCACGCACCCCCACCTATCG (guide RNA; chemistry not fully specified) [SluD22] | 21% | 20.98% | 7.86% | 1.54% | 0.76% | 
16 | CTCCGAGAGCAGCGCAAGTGAG (guide RNA; chemistry not fully specified) [SluD52] | 6% | 26.8% | 7.59% | 1.57% | 1.26% | 
17 | CTGCAGTTTGCCCATCCACGTC (guide RNA; chemistry not fully specified) [SluD10] | 18% | 27.41% | 13.43% | 1.26% | 2.84% | 
18 | CTTCGAgccccgttcgccggcc (guide RNA; as printed in the source, key not given here) [SluU61] | 14% | 49.57% | 17.78% | 1.46% | 0.9% | 
19 | CTTGTGCATGACGCCCTGCTCT (listed as DNA, chemistry not fully specified) [SluD32] | 94% | 26.23% | 19.22% | 1.31% | 1.43% | high editing IN4DEL efficiency
20 | CTTTGCGAACCAACGATAGGTG (guide RNA; chemistry not fully specified) [SluD25] | 41% | 32.03% | 26.87% | 1.35% | 2.62% | 
21 | CTTTTATTCGCGAGGGTCGGGG (guide RNA; chemistry not fully specified) [SluD93] | 18% | 26.14% | 11.34% | 3.58% | 1.63% | 
22 | CTTTTGCCAAACCCGCTTTTTC (guide RNA; chemistry not fully specified) [SluD41] | 6% | 37.15% | 8.97% | 1.44% | 1.33% | 
23 | GACAATAAATACCGAGGAATGT (guide RNA; chemistry not fully specified) [SluD81] | 10% | 28.66% | 9.64% | 1.75% | 1.54% | 
24 | GACGCCCTGCTCTGGGGAGCGT (guide RNA; chemistry not fully specified) [SluD33] | 74% | 33.92% | 12.72% | 1.76% | 4.78% | 
25 | GAGAGCAGCGCAAGTGAGGAGG (listed as DNA, chemistry not fully specified) [SluD48] | 60% | 25.41% | 13.31% | 2.91% | 2.3% | high editing IN4DEL efficiency
26 | GAGGGCCTTTTATTCGCGAGGG (guide RNA; chemistry not fully specified) [SluD97] | 11% | 39.95% | 16.07% | 2.01% | 1.19% | 
27 | GATAGGTGGGGGTGCGTGGAGG (guide RNA; chemistry not fully specified) [SluD21] | 36% | 32.15% | 9.96% | 1.77% | 1.95% | 
